One compound from US8436049B2, “Uses of pentamidine and related compounds” (State of Oregon Acting By and Through the State Board of …, priority 2008, dated 2013) can be followed below.

Molecules are shown by their SMILES. Where “and” joins values, the source holds several entries; their conditions need not be identical. Equal entries are not always repeated.

The target of experiment [1] is CUG repeats (fluorescein labeled RNA). The experiment is described as follows: Fluorescence anisotropy, direct binding to fluorescein labeled CUG repeats. The note with it: absence of MBNL, 25° C. The protocol:
Fluorescent RNAs were ordered from Dharmacon RNA Technologies (Lafayette, Colo.), and deprotected according to the manufacturer's protocol. RNA was snap annealed in 175 mM NaCl, 20 mM Tris pH 7.5, 5 mM MgCl2. All fluorescence anisotropy experiments were performed in this buffer, with the addition of 0.1 mg/ml of heparin when using protein. Experiments were performed at 25° C. in a 7.5 mm wide Spectrosil® far UV quartz cuvette (Starna Cells, Inc, Atascadero, Calif.), using an L-format FluoroMax®-3 fluorimeter (Horiba Jobin Yvon, Inc., Edison, N.J.). Each anisotropy run was normalized by setting the initial value of the anisotropy of the RNA alone to zero, which converts the data into Δ anisotropy. Curves were graphed using KaleidaGraph (Synergy) software. For curve fitting of titrations and determining apparent Kd values, Equation 1 was used (Example 1). The error bars on the binding curve were obtained by averaging individual titration points from three separate experiments and calculating the standard deviation.
To determine if pentamidine binds to the CUG repeats and not to MBNL, fluorescein labeled CUG repeats (FIG. 3A) were used to monitor the binding of pentamidine directly to the CUG repeats in the absence of MBNL.

The test system of experiment [2] is PLEKHH2 minigene in HeLa cells. The experiment is described as follows: PLEKHH2 minigene splicing in HeLa cells. In kind it is cell-based. The note with it: with or without CUG repeats. The protocol:
HeLa cells were grown in monolayers in DMEM with GlutaMAX™ (Gibco, Carlsbad, Calif.) and supplemented with 10% fetal bovine serum. Approximately 2.0 (±0.2)×10^5 cells were plated in 6 well plates and transfected 18-20 hours later at 70-90% confluency. 1 μg of plasmid was transfected into each well of cells, using 5 μL of […] (Invitrogen) according to the manufacturer's protocols. For co-transfection, 1 μg of total plasmid was transfected, at 500 ng of each construct. Test compounds were added 4 hours after transfection, when the media was changed. Cells were harvested 18-22 hours after transfection using TrypLE™ reagent (Gibco).
Immediately following harvesting, RNA was isolated from the cell pellets using an RNeasy® kit (Qiagen, Valencia, Calif.). 500 ng of isolated RNA was DNased with RQI DNase (Promega, Madison, Wis.) according to manufacture's protocol. 100 ng of DNAsed RNA was reverse transcribed with Superscript® II (Invitrogen, Carlsbad, Calif.) and a cTNT-specific reverse primer according to manufacturer's protocols. 30 ng of the reverse transcription reaction was subjected to 22-25 rounds of PCR amplification using cTNT specific primers spiked with a forward primer 5′ end-labeled with [γ-^32P]ATP. […] The gel was subsequently autoradiographed and quantitation of the radioactive bands was performed using ImageQuant® software. […]

The target of another experiment is T1, MBNL-cTNT interaction (Homo sapiens, UniProt Q9NR56).
T1 construct: Both the full length MBNL and MBNL (1-260) constructs were cloned using BamHI and NotI restriction sites; GST (N, cleaved yes); made in house; host or cells: E. coli BL21-Star
T1 sequence (Q9NR56 1-382 isoform Q9NR56-5): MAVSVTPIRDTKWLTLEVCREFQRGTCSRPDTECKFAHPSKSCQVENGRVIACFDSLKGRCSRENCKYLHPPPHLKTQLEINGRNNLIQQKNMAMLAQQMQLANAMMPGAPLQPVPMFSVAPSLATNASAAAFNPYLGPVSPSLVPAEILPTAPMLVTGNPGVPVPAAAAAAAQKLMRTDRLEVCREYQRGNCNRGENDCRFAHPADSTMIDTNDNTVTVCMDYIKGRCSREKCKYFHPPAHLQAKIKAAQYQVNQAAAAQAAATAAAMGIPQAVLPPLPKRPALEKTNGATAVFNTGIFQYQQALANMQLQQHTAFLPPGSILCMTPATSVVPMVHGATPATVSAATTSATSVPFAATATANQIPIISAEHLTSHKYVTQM
The experiment is described as follows: Gel shift assay, disruption of MBNL binding to cTNT pre-mRNA site. The note with it: read-out: EC50 for disruption of MBNL binding to cTNT target construct. The protocol: Solutions for the protein-RNA binding experiments contained 125 mM NaCl, 5 mM MgCl2, 20 mM Tris (pH 7.5), 7.5% glycerol, 2 mg/ml bovine serum albumin, and 0.1 mg/ml heparin. Prior to incubation, RNA substrates were annealed by incubation at 95° C. for 2 minutes and then placed directly on ice for 20 minutes in 66 mM NaCl, 6.7 mM MgCl2, and 27 mM Tris (pH 7.5). Protein was then added to the RNA in the presence or absence of the small molecule. The binding reaction was carried out in a 10 μL volume and was incubated for 10 minutes at room temperature before 2-4 μL were loaded on a pre-chilled 4° C. gel. […]
For binding curves, gels were quantified using ImageQuant® software (Molecular Dynamics, Piscataway, N.J.). The percent RNA bound was determined by taking the ratio of RNA-protein complex to total RNA, per lane. […] Binding curves were graphed using KaleidaGraph software (Synergy Software, Reading, Pa.). For the neomycin B and CUG8 gel shift, the apparent Kd was determined using Equation 1, where Y=fraction bound, m0=small molecule concentration, m1=total RNA concentration, and m2=Kd. […]
Pentamidine has been shown previously to bind to other RNAs and DNAs (Zhang et al., RNA 6:937-951, 2000); therefore, we determined pentamidine binding to an endogenous target of MBNL. […]
A general note: A gel shift assay detects complexes by their altered migration in electrophoresis.

For orientation: Kd means the equilibrium constant for the complex coming apart. Usually EC50 stands for the midpoint of the concentration-response curve. For `N=C(N)c1ccc(OCCCCCOc2ccc(C(=N)N)cc2)cc1` [pentamidine], the Kd in experiment [1] is ~19 µM and 19 µM. The “Effect on PLEKHH2 minigene splicing” value in experiment [2] is recorded as “Splicing was unchanged”. In addition, the EC50 on MBNL-cTNT interaction was ~85 µM and 85 µM.
